According to patent publication US5654296A, “Condensed heterocyclic compounds, their production and use” (priority 1994, dated 1997):
Where a name gives a salt, the structure may show the parent alone.

Target: T1, human GnRH receptors (Homo sapiens, UniProt P30968)
T1 construct: expressed in transfected cells; host or cells: CHO (Chinese hamster ovary) cells, membrane fraction
T1 sequence (P30968 1-328): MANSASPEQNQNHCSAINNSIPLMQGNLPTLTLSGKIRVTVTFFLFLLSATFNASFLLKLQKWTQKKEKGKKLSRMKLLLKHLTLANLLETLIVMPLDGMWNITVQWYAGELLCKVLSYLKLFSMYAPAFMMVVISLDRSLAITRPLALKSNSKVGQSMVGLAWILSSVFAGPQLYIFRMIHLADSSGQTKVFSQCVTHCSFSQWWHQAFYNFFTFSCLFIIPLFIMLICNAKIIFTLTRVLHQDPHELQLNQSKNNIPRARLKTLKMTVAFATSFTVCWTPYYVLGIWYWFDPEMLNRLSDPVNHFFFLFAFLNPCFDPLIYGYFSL
Assay: 125I-leuprolerin GnRH receptor binding inhibition test, human (CHO cell membrane fraction)
Conditions: human GnRH receptors expressed in CHO cells, 25° C., 60 minutes, read-out: Binding inhibitory activity (IC50 μM) Human
Protocol: Ten (10) μl of 3×10^4 M aqueous leuprolerin solution and 10 μl of 0.01 mg/ml lactoperoxidase were taken in a tube and 10 μl of Na^125 I solution (37 MBq) was added. After stirring, 10 μl of 0.001% H2 O2 was added and the reaction was conducted at room temperature for 20 minutes. Then, 700 μl of 0.05% TFA solution was added to the tube to terminate the reaction and the reaction mixture was purified by reverse-phase HPLC. The HPLC conditions are shown below. ^125 I-leuprolerin was eluted after a retention time of 26-27 minutes. (D) Preparation of a CHO (Chinese Hamster Ovarian) Cell Membrane Fraction Containing Human GnRH Receptors […] To the cell pellet was added 10 ml of cell homogenate buffer (10 mM NaHCO3, 5 mM EDTA, pH 7.5) and the mixture was homogenized using a Polytron homogenizer. The homogenate was centrifuged at 400×G for 15 minutes. The supernatant was taken in an ultracentrifuge tube and centrifuged at 100,000×G for 1 hour to provide a membrane fraction pellet. […] After filtration, the radioactivity of ^125 I-leuprolerin remaining on the filter was measured with a γ-counter. The expression (TB-SB)/(TB-NSB)×100 (where SB=radioactivity with the compound added, TB=maximum bound radioactivity, NSB=nonspecifically bound radioactivity) was calculated to find the binding inhibition rate of each test compound.

COc1cc2c(cc1OC)CC1(CCCCN1CCCCC1(c3ccccc3)COCc3ccccc31)CC2 (centres unmarked) [Example I-52, 3,4-Dihydro-6,7-dimethoxy-1'-[4-(4-phenylisochroman-4-yl)butyl]spiro[naphthalene-2(1H),2'-piperidine] hydrochloride]
IC50: 6 µM

COC(=O)c1cccc(CNCCCC2(c3ccccc3)COCc3ccccc32)c1 (stereo not drawn) [Example I-45, Methyl α-[3-(4-Phenylisochroman-4-yl)propylamino]-m-toluate hydrochloride]
IC50: 6 µM
